Results taken from article PMC10510756 (Chemical Science, 2023).

Columns and labels:
[1] = tested on: Cy5-SAM-VI RS (RNA, riboswitch) GGCAUUGUGCCUCGCAUUGCACUCCGCGGGGCGAUAAGUCCUGAAAAGGGAUGUC; experiment: MST, 5'-Cy5-labelled RNA; settings: 100 mM KCl, 25 mM MgCl2; 50 mM Tris-HCl pH 7.5, 25 °C, 20 nM RNA
[2] = tested on: SAM-I RS (RNA, riboswitch) GGCUUAUCAAGAGAGGGGGAGCGACUGGCGCGAAGAACCCCGGCAACCAGAAAUGGUGCCAAUUCCUGCAGCGGAAACGUUGAAAGAUGAGCCG; experiment: MST, SybrGold (1x) non-covalent dye; settings: 100 mM KCl, 25 mM MgCl2; 50 mM Tris-HCl pH 7.5, 25 °C, 100 nM RNA
[3] = tested on: SAM-VI RS (RNA, riboswitch) GGCAUUGUGCCUCGCAUUGCACUCCGCGGGGCGAUAAGUCCUGAAAAGGGAUGUC; experiment: MST, SybrGold (1x) non-covalent dye; settings: 100 mM KCl, 25 mM MgCl2; 50 mM Tris-HCl pH 7.5, 25 °C, 100 nM RNA
[4] = tested on: Neomycin aptamer (RNA, aptamer) GGCUGCUUGUCCUUUAAUGGUCCAGUC; experiment: MST, Syto 59 (1x) non-covalent dye; settings: 100 mM KCl, 25 mM MgCl2; 50 mM Tris-HCl pH 7.5, 25 °C, 100 nM RNA; apparent; below tight-binding limit
[5] = tested on: PreQ1 RS (RNA, riboswitch) GGAGAGGUUCUAGCUACACCUCUAUAAAAAACUAA; experiment: MST, SybrGold (1x) non-covalent dye; settings: 100 mM KCl, 25 mM MgCl2; 50 mM Tris-HCl pH 7.5, 25 °C, 100 nM RNA; apparent; near tight-binding limit
[6] = molecular target: METTL3/14 (Homo sapiens, UniProt Q86U44)
Sequence of METTL3/14 (Q86U44 2-580): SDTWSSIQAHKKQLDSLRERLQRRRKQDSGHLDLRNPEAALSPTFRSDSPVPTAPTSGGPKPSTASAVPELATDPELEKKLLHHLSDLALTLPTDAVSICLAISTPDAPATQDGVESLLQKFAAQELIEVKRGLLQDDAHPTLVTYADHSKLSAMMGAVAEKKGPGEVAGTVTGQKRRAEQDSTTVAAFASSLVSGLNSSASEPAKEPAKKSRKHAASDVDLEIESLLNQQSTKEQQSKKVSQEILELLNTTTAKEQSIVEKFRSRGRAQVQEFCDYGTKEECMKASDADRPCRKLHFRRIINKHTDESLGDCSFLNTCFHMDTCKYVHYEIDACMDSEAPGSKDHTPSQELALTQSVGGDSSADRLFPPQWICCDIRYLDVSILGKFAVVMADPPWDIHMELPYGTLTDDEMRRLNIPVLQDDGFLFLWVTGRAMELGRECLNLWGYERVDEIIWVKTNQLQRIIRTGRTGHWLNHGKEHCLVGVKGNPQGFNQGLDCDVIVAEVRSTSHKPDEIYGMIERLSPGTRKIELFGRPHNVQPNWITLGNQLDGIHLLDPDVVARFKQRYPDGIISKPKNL
Sequence of METTL3/14 (Q9HCE5 whole entry partner): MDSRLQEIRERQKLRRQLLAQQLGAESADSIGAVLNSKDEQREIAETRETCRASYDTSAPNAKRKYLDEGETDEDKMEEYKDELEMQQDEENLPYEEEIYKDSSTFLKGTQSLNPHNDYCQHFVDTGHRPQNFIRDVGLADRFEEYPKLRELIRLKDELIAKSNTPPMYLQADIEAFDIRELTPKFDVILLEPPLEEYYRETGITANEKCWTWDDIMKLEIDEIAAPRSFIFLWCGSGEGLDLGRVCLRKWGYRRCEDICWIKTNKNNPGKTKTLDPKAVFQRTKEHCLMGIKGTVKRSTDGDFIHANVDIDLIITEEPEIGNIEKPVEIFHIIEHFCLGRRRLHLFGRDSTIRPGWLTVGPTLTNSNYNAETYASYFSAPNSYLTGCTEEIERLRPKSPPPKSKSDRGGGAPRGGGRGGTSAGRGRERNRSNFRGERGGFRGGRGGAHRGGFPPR

SMILES | KD [1] | KD [2] | KD [3] | further results
C[S+](CC[C@H](N)C(=O)O)C[C@H]1O[C@@H](n2cnc3c(N)ncnc32)[C@H](O)[C@@H]1O (stereo partly drawn) | 0.699 ± 0.185 µM | 0.157 µM | 0.953 µM | –
NC[C@@H]1O[C@H](O[C@H]2[C@@H](O)[C@H](O[C@@H]3[C@@H](O)[C@H](N)C[C@H](N)[C@H]3O[C@H]3O[C@H](CN)[C@@H](O)[C@H](O)[C@H]3N)O[C@@H]2CO)[C@H](N)[C@@H](O)[C@@H]1O | – | – | – | KD,app [4]: 29.6 nM
NCc1c[nH]c2nc(N)[nH]c(=O)c12 | – | – | – | KD,app [5]: 44.8 nM
Nc1ncnc2c1ncn2[C@@H]1O[C@H](CSCC[C@H](N)C(=O)O)[C@@H](O)[C@H]1O | 23.6 ± 7.0 µM | 137 µM | 10 µM | –
C[S+](CC[C@H](N)C(=O)[O-])C[C@H]1O[C@@H](n2cnc3c(N)ncnc32)[C@H](O)[C@@H]1O (stereo partly drawn) [S-adenosylmethionine] | – | – | – | Km [6]: 226 nM
